Test results taken from ChEMBL document CHEMBL1148145, “2,3,4-Trimethyl-5,7-dihydroxy-2,3-dihydrobenzofuran, a novel antioxidant, from Penicillium citrinum F5” (J Nat Prod, 2002).

These molecules were tested on Radical scavenging activity (assay: Antioxidant activity assessed as DPPH radical scavenging activity after 30 mins by spectrophotometry).
Format: functional

Row | Structure (SMILES) | IC50
1 | Cc1c(O)cc(O)c2c1[C@@H](C)[C@H](C)O2 | 10.4 µM
2 | O=C1O[C@H]([C@@H](O)CO)C(O)=C1O [ASCORBIC ACID] | 8.92 µM
3 | O=C(O)c1cc(O)ccc1O [GENTISIC ACID] | 4.26 µM
4 | CC(C)(Sc1cc(C(C)(C)C)c(O)c(C(C)(C)C)c1)Sc1cc(C(C)(C)C)c(O)c(C(C)(C)C)c1 [PROBUCOL] | 36.1 µM
5 | Cc1c(C)c2c(c(C)c1O)CCC(C)(C(=O)O)O2 (stereo not given) [TROLOX] | 8.77 µM
